Measured values: US11559527B2 (priority 2017, dated 2023)

Experiments:
Assay type in all cases: cell-based, Human
MCF7 breast cancer cells = test: Tumorsphere formation assay, MCF7; details: five days, vs vehicle
Protocol: One of the gold standard techniques for the study and identification of CSCs is the sphere formation assay, an in vitro culture system that enriches for CSCs. Under these anchorage-independent culture conditions, CSCs preferentially form the so-called tumorspheres, whereas more differentiated cells die rapidly.
TUMORSPHERE FORMATION ASSAY: A single cell suspension was prepared using enzymatic (1× Trypsin-EDTA, T3924, Sigma Aldrich), and manual disaggregation (25 gauge needle). […] After 5 days of culture in a humidified incubator at 37° C., tumorspheres bigger than 50 μm were counted using an eye piece graticule.

MCF7 cells [1] = test: Mitochondrial staining with Mitotracker Deep Red (microscopy); details: 10 μM, 2- and 5-day treatment
Description: In order to assess whether the inhibition of DRP1 was actually being translated into a reduction in mitochondrial fission, the inventors stained the mitochondria of MCF7 cells with Mitotracker Deep Red, which is a marker of mitochondrial mass. […] The original images are black background with shades of red over the cells, whereas the images in FIG. 3 have been color-inverted and generated in grey scale. Mitochondrial mass was also quantified by flow cytometry. FIGS. 4A-4C show results of mitochondrial mass quantification. In FIG. 4A, Mitotracker Deep Red mean intensity relative to vehicle intensity is shown for 2-day and 5-day treatments.
MITOCHONDRIAL STAINING: One hundred thousand MCF7 cells were seeded onto coverslips in 12-well plates. When cells were attached, mDIVI-1 and vehicle treatments were performed in triplicate. After 2 days and 5 days, mitochondria were labeled by incubating cells for 15 min at 37° C. with 25 nM of MitoTracker DeepRed (M22426, Invitrogen) diluted in PBS (D8662, Sigma). Then, cells were washed with PBS, fixed in 2% paraformaldehyde (28908, Thermo Scientific) in PBS for 30 minutes at room temperature and mounted with ProLong® Gold Antifade Mountant reagent with DAPI (P36935, Invitrogen, Inc.). […]

MCF7 cells [2] = test: Reactive oxygen species (CM-H2DCFDA, flow cytometry)
Description: Inhibition of the mitochondrial fission impacts on other mitochondrial processes, such as mitochondrial metabolism and general and mitochondrial oxidative stress. To confirm, MCF7 cells were stained with MitoSOX and CM-H2DCFDA, and mitochondrial superoxide and total ROS were quantified by flow cytometry. […] Whereas the increase in general ROS goes in line with the increase in mitochondrial content, the boost in the levels of mitochondrial superoxide in mDIV1-treated cells is actually bigger than the observed increased mitochondrial content.
LEVELS OF REACTIVE OXYGEN SPECIES AND MITOCHONDRIAL SUPEROXIDE: For both assays, 2×10^5 MCF7 cells were seeded in 35 mm plates. […] Reactive oxygen species (ROS) production was measured using CM-H2DCFDA (C6827, Invitrogen). Briefly, cells were incubated for 20 minutes at 37° C. with 1 μM CM-H2DCFDA diluted in PBS and then placed in complete media for 20 minutes at 37° C. in the dark, to render the dye fluorescent, according to the manufacturer. Mitochondrial superoxide was measured using MitoSOX Red Mitochondrial Superoxide Indicator (M36008, ThermoFisher Scientific). […] ROS signal and MitoSOX signal was quantified as mean fluorescent intensity of the viable cell population in a Fortessa flow cytometer (BD Bioscience). Results were analysed using FlowJo software.

COc1cc(-n2c(S)nc3ccccc3c2=O)c(Cl)cc1Cl [mDIVI-1, 3-(2,4-Dichloro-5-methoxyphenyl)-2-sulfanyl-4(3H)-quinazolinone]
decrease of tumorsphere number (MCF7 breast cancer cells; MCF7, 10 μM): 50%
decrease of tumorsphere number (MCF7 breast cancer cells; MCF7, 50 μM): 80%
decrease of tumorsphere number (MCF7 breast cancer cells; MCF7, 100 μM): 95%
mitochondrial morphology (MCF7 cells [1]): more interconnected mitochondria
production of total ROS (MCF7 cells [2]; 5 days of treatment): slight trend toward an increase
general oxidative stress levels (MCF7 cells [2]; after exposure to mDIVI-1): did not change
